The test system of the test is P. acnes 6919 strain (ATCC, USA). Nature of the test: Contact kill assay against P. acnes (2 h exposure, colony count). Type of test: cell-based, Propionibacterium acnes. Particulars: 10 mM HEPES pH 7.0, 37° C., relative to control. The procedure:
P. acnes 6919 strain (ATCC, USA) was grown under anaerobic conditions on RCM agar from Glycerol stocks. A loopful of culture from glycerol stock was streaked on freshly prepared RCM agar plate and incubated at 37° C. anaerobically for 4-5 days. After the incubation, the culture was taken from the plate and re-suspended in saline and then centrifuged at 8000 rpm for 6 minutes at 4° C. The pellet obtained was re-suspended in 10 mM HEPES buffer (pH 7.0). An OD600 culture of 0.5 was made in HEPES buffer. 1:10 dilution of 0.5 OD adjusted culture was used for contact kill assay corresponding to 10^6 cells per ml. […] The contact assay was performed in 10 mM HEPES buffer (pH 7.0). For control, 181 μl of 1:10 diluted […] adjusted culture was mixed with 19 μl of HEPES buffer to make a volume of 200 μl. […] The mixture was mixed and incubated at 37° C. for 2 hours in shaker incubator. Post incubation, the samples were neutralised by serial 1:10 dilution in D/E broth followed by saline dilutions. 100 μl of each dilution was plated on fresh RCM agar plates and allowed to dry. The plates were sealed with parafilm and incubated at 37° C. in anaerobic chamber for 4-5 days. Post incubation, colonies were counted and titer was estimated as log CFU/ml. The relative log reductions of individual and combination treatment were calculated with respect to control and the data is presented in the table below: […]

On to `Cc1ccc(C(C)C)c(O)c1` [Thymol, thymol], for which the Relative log reduction is listed as 0.33 (Thymol 0.01%) and 2.02 (Thymol 0.02%).

B1: Endolysin: recombinant P. acnes phage endolysin cloned from Propionibacterium phage 29399B_C, 284 amino acids, expressed in E. coli (protein)
chain: MRYIPAAHHSAGSNHPVNRVVIHATCPDVGFPSASRKGRAVSTANYFASPSSGGSAHYVCDIGETVQCLSEGTIGWHAPPNPHSLGIEICADGGSHASFRVPGHAYTREQWLDPRVWPAVEKAAILCRRLCDKYNVPKRKLSAADLKAGRRGVCGHVDVTDAWHQSDHDDPGPWFPWDRFMAVVNGHNESGELTVADVKALHDQIKQLSAQLAGSVNKLHHDVGVVQVQNGDLGKRVDALSWVKNPVTGKLWRTKDALWSVWYYVLECRSRIDRLESAVNGLKKLEHHHHHH
modifications: His6 tag; Polypeptide sequence of Endolysin with C-terminal Histidine tag (x6)
Regarding B1, for the setting “Endolysin 3 μM”, the Relative log reduction worked out at 1.17.

(Values after US20210386835A1, “AN ANTIMICROBIAL COMPOSITION FOR SELECTIVELY INHIBITING GROWTH OF P. ACNES BACTERIA” (priority 2018, published 2021).)
